# From ChEMBL document CHEMBL1122235, “4'-Methylangelicins: new potential agents for the photochemotherapy of psoriasis” (J Med Chem, 1983)
# Columns and labels:
# [1] = Rate constant of the photoreaction between compound and DNA.; assay type: ADME
# [2] = In vivo inhibition of epidermal DNA synthesis in mouse after topical application relative to that of 8-MOP; assay type: functional
# Nucleic Acid = assay: Association constant to an isolated site calf thymus DNA; assay type: nucleic-acid assay; conditions: Bos taurus
# Mus musculus [3] = assay: In vivo inhibition of epidermal DNA synthesis in mouse after topical application; assay type: functional
# [4] = Number of nucleotides occluded by a bound furocoumarin molecule
# Mus musculus [5] = assay: In vivo inhibition of epidermal DNA synthesis in mouse after oral administration; assay type: functional
# [6] = Solubility in water was determined; assay type: physicochemical
# [7] = Partition coefficient between octanol and water; assay type: physicochemical
# [8] = In vivo inhibition of epidermal DNA synthesis in mouse after oral administration relativ to that of 8-MOP; assay type: functional
# [9] = Frequency of binding sites i.e., number of ligands bound per nucleotide
compound,measurement,setting,value
Cc1cc(=O)oc2c1ccc1occ(C)c12,Rate constant,[1],0.073 min⁻¹
same,Relative activity,[2],0.72
same,Binding constant,Nucleic Acid,6600
same,Inhibition,Mus musculus [3],44.27%
same,Number,[4],12.5
same,Inhibition,Mus musculus [5],25.82%
same,Solubility,[6]; buffer,0.000012 M l-1
same,Solubility,"[6]; water, read-out: Solubility",2.6 µg/mL
same,Partition coefficient,[7],1190
same,Relative activity,[8],0.66
same,1/n,[9],0.08
COc1c2occc2cc2ccc(=O)oc12 [METHOXSALEN],Rate constant,[1],0.031 min⁻¹
same,Relative activity,[2],1
same,Binding constant,Nucleic Acid,736
same,Inhibition,Mus musculus [3],61%
same,Number,[4],7.81
same,Inhibition,Mus musculus [5],39.1%
same,Relative activity,[8],1
same,1/n,[9],0.128
Cc1cc2occc2c2oc(=O)ccc12,Rate constant,[1],0.034 min⁻¹
Cc1coc2ccc3ccc(=O)oc3c12,Rate constant,[1],0.037 min⁻¹
same,Relative activity,[2],0.95
same,Binding constant,Nucleic Acid,975
same,Inhibition,Mus musculus [3],58.43%
same,Number,[4],15.4
same,Inhibition,Mus musculus [5],36.75%
same,Solubility,[6]; buffer,0.00007 M l-1
same,Solubility,"[6]; water, read-out: Solubility",14 µg/mL
same,Partition coefficient,[7],240
same,Relative activity,[8],0.94
same,1/n,[9],0.065
Cc1cc2c(ccc3ccc(=O)oc32)o1,Rate constant,[1],0.021 min⁻¹
Cc1cc2occ(C)c2c2oc(=O)ccc12,Rate constant,[1],0.059 min⁻¹
same,Relative activity,[2],0.95
same,Binding constant,Nucleic Acid,5400
same,Inhibition,Mus musculus [3],58.41%
same,Number,[4],12.5
same,Inhibition,Mus musculus [5],53.33%
same,Solubility,[6]; buffer,0.000022 M l-1
same,Solubility,"[6]; water, read-out: Solubility",4.7 µg/mL
same,Partition coefficient,[7],1041
same,Relative activity,[8],1.36
same,1/n,[9],0.08
O=c1ccc2ccc3occc3c2o1 [ANGELICIN],Rate constant,[1],0.011 min⁻¹
same,Relative activity,[2],0.28
same,Binding constant,Nucleic Acid,560
same,Inhibition,Mus musculus [3],17.5%
same,Number,[4],15.9
same,Inhibition,Mus musculus [5],28%
same,Solubility,[6]; buffer,0.000105 M l-1
same,Partition coefficient,[7],120
same,Relative activity,[8],0.71
same,1/n,[9],0.063
Cc1cc(=O)oc2c1ccc1occc12,Rate constant,[1],0.016 min⁻¹
